ChEMBL document CHEMBL1201862, “PubChem BioAssay data set” (2004)
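Cells were grown in 96-well plates and exposed to each compound for 48 hours at five concentrations; endpoints were interpolated linearly between bracketing concentrations, or set to the highest concentration if not reached. At the GI50, growth is halved.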 The source made the active and inactive calls. Cut-off read from the data, not from the text of the source: active = GI50 up to about 1.1 µM and inactive = higher.

What was measured:
Assay in all cases: DTP human tumour cell line panel, 48 h
[1] = test system: UACC-257
[2] = test system: HT-29
[3] = test system: LOX IMVI
[4] = test system: SK-OV-3
[5] = test system: A549
[6] = test system: SK-MEL-28
[7] = test system: SF-268
[8] = test system: COLO 205
[9] = test system: RPMI-8226
[10] = test system: DU-145
[11] = test system: CAKI-1
[12] = test system: KM12
[13] = test system: SNB-75
[14] = test system: PC-3
[15] = test system: TK-10
[16] = test system: HCT-116
[17] = test system: SNB-19
[18] = test system: UO-31
[19] = test system: NCI-H460
[20] = test system: A498

Row | Compound | GI50 [1] | GI50 [2] | GI50 [3] | GI50 [4] | GI50 [5] | GI50 [6] | GI50 [7] | GI50 [8] | GI50 [9] | GI50 [10] | GI50 [11] | GI50 [12] | GI50 [13] | GI50 [14] | GI50 [15] | GI50 [16] | GI50 [17] | GI50 [18] | GI50 [19] | GI50 [20]
1 | COC(=O)/C(=C\C(=O)c1ccc(Br)cc1)NN=C(c1ccccc1)c1ccccc1 | > 10 µM (inactive) | > 10 µM (inactive) | > 10 µM (inactive) | > 10 µM (inactive) | > 10 µM (inactive) | > 10 µM (inactive) | > 10 µM (inactive) | > 10 µM (inactive) | > 10 µM (inactive) | > 10 µM (inactive) | > 10 µM (inactive) | > 10 µM (inactive) | > 10 µM (inactive) | > 10 µM (inactive) | > 10 µM (inactive) | – | – | – | – | –
2 | COc1cc(C2c3cc4c(cc3OC(NCCO)C2C)OCO4)cc(OC)c1O (stereo not drawn) | – | 7.11 µM (inactive) | – | – | 10.1 µM (inactive) | 7.64 µM (inactive) | 39.6 µM (inactive) | 21.2 µM (inactive) | 3.23 µM (inactive) | 9.79 µM (inactive) | 19.2 µM (inactive) | 6.78 µM (inactive) | 7.45 µM (inactive) | 8.79 µM (inactive) | 12.8 µM (inactive) | 5.06 µM (inactive) | 29.2 µM (inactive) | 24.5 µM (inactive) | – | –
3 | Cc1ccc(S(=O)(=O)NC(=O)Nc2ccc(C(=O)O)cc2)cc1 | > 100 µM (inactive) | > 100 µM (inactive) | > 100 µM (inactive) | > 100 µM (inactive) | > 100 µM (inactive) | > 100 µM (inactive) | > 100 µM (inactive) | > 100 µM (inactive) | > 100 µM (inactive) | > 100 µM (inactive) | – | > 100 µM (inactive) | > 100 µM (inactive) | > 100 µM (inactive) | > 100 µM (inactive) | > 100 µM (inactive) | > 100 µM (inactive) | > 100 µM (inactive) | > 100 µM (inactive) | –
4 | Cc1ccc(/C=C2/N/C(=N\N=C/c3ccccc3)NC2=O)cc1 | > 100 µM (inactive) | 46.3 µM (inactive) | 39.1 µM (inactive) | 40.3 µM (inactive) | 44.2 µM (inactive) | 36.4 µM (inactive) | 77.1 µM (inactive) | 56.5 µM (inactive) | 16.2 µM (inactive) | 55.1 µM (inactive) | 38.5 µM (inactive) | > 100 µM (inactive) | 31.3 µM (inactive) | 48.5 µM (inactive) | 32.2 µM (inactive) | 28.6 µM (inactive) | 25.8 µM (inactive) | 18.4 µM (inactive) | 31.6 µM (inactive) | –
5 | Clc1ccc(-c2nc(-c3ccc(Cl)cc3)[s+]s2)cc1 | 55.2 µM (inactive) | 48.1 µM (inactive) | 33.1 µM (inactive) | 41.1 µM (inactive) | 39.9 µM (inactive) | 59.7 µM (inactive) | 37.2 µM (inactive) | > 100 µM (inactive) | 32.6 µM (inactive) | > 100 µM (inactive) | > 100 µM (inactive) | 42.1 µM (inactive) | – | > 100 µM (inactive) | 24 µM (inactive) | 51.4 µM (inactive) | 50.5 µM (inactive) | > 100 µM (inactive) | 37.6 µM (inactive) | > 100 µM (inactive)
6 | COc1ccc2[nH]cc(CCNC(=O)[C@H](Cc3ccccc3)NC(=O)[C@@H](NCC(F)(F)F)C(C)C)c2c1 | 19.7 µM (inactive) | 16.7 µM (inactive) | 22.1 µM (inactive) | 18.2 µM (inactive) | 27 µM (inactive) | 17.2 µM (inactive) | – | 17.9 µM (inactive) | 8.17 µM (inactive) | 18.3 µM (inactive) | – | 18.5 µM (inactive) | – | 18.2 µM (inactive) | 22 µM (inactive) | 16.5 µM (inactive) | 28.6 µM (inactive) | 22.9 µM (inactive) | 20.1 µM (inactive) | –
7 | C=CCC1(C(=O)OC)CCC/C(=N\O)C1 (stereo not drawn) | > 10 µM (inactive) | > 10 µM (inactive) | > 10 µM (inactive) | > 10 µM (inactive) | > 10 µM (inactive) | > 10 µM (inactive) | > 10 µM (inactive) | > 10 µM (inactive) | > 10 µM (inactive) | > 10 µM (inactive) | > 10 µM (inactive) | > 10 µM (inactive) | > 10 µM (inactive) | > 10 µM (inactive) | > 10 µM (inactive) | > 10 µM (inactive) | > 10 µM (inactive) | – | – | –
8 | CCN(CC)CCCNc1nc(=O)[nH]c(C)c1C(=O)Nc1cccc2cc3ccccc3cc12 | > 100 µM (inactive) | > 100 µM (inactive) | > 100 µM (inactive) | > 100 µM (inactive) | > 100 µM (inactive) | > 100 µM (inactive) | – | > 100 µM (inactive) | > 100 µM (inactive) | > 100 µM (inactive) | > 100 µM (inactive) | 45.9 µM (inactive) | > 100 µM (inactive) | > 100 µM (inactive) | > 100 µM (inactive) | > 100 µM (inactive) | > 100 µM (inactive) | > 100 µM (inactive) | – | –
9 | N#Cc1nc(CCCN2C(=O)c3ccccc3C2=O)oc1N | > 100 µM (inactive) | > 100 µM (inactive) | > 100 µM (inactive) | > 100 µM (inactive) | > 100 µM (inactive) | > 100 µM (inactive) | > 100 µM (inactive) | > 100 µM (inactive) | > 100 µM (inactive) | > 100 µM (inactive) | > 100 µM (inactive) | – | – | > 100 µM (inactive) | > 100 µM (inactive) | > 100 µM (inactive) | > 100 µM (inactive) | > 100 µM (inactive) | > 100 µM (inactive) | –
10 | COc1cc2c(cc1OCCCCCCCCN1C(=O)c3cccc4cccc(c34)C1=O)N=C[C@@H]1CCCN1C2=O | 26.2 µM (inactive) | 15.7 µM (inactive) | 6.89 µM (inactive) | 1.79 µM (inactive) | 20 µM (inactive) | 17.9 µM (inactive) | 15 µM (inactive) | 4.71 µM (inactive) | 2.96 µM (inactive) | 50.2 µM (inactive) | 13.3 µM (inactive) | 16.3 µM (inactive) | 1.11 µM (active) | 7.45 µM (inactive) | 29.7 µM (inactive) | 19.1 µM (inactive) | 35.3 µM (inactive) | 17.2 µM (inactive) | 20.7 µM (inactive) | –
11 | O=C(c1ccccc1)C1C[C@H]2CO[C@H](c3ccccc3)N2C1=O (stereo partly drawn) | > 100 µM (inactive) | > 100 µM (inactive) | > 100 µM (inactive) | – | > 100 µM (inactive) | > 100 µM (inactive) | > 100 µM (inactive) | > 100 µM (inactive) | > 100 µM (inactive) | > 100 µM (inactive) | > 100 µM (inactive) | > 100 µM (inactive) | > 100 µM (inactive) | > 100 µM (inactive) | > 100 µM (inactive) | > 100 µM (inactive) | > 100 µM (inactive) | > 100 µM (inactive) | > 100 µM (inactive) | –
12 | CC1=C[P+](c2ccccc2)(c2ccccc2)c2ccccc2O1 | 2.79 µM (inactive) | 2.91 µM (inactive) | 4.45 µM (inactive) | 25 µM (inactive) | 13.6 µM (inactive) | 7.01 µM (inactive) | 16.6 µM (inactive) | 1.29 µM (inactive) | – | 19.2 µM (inactive) | 23.5 µM (inactive) | 2.07 µM (inactive) | 11.4 µM (inactive) | 3.32 µM (inactive) | 14 µM (inactive) | 3.71 µM (inactive) | 7.11 µM (inactive) | > 100 µM (inactive) | 20.5 µM (inactive) | –
13 | COc1ccc2oc(=O)c(-c3cc4c(c(C)n3)c(=O)oc3ccc(OC)cc34)cc2c1 | > 100 µM (inactive) | 80.5 µM (inactive) | > 100 µM (inactive) | > 100 µM (inactive) | > 100 µM (inactive) | > 100 µM (inactive) | 55.8 µM (inactive) | > 100 µM (inactive) | > 100 µM (inactive) | > 100 µM (inactive) | 70.8 µM (inactive) | > 100 µM (inactive) | > 100 µM (inactive) | > 100 µM (inactive) | > 100 µM (inactive) | > 100 µM (inactive) | 25.5 µM (inactive) | > 100 µM (inactive) | > 100 µM (inactive) | –
14 | COC(=O)c1c2c(cc3c1CC1(Cc4cc5c(c(C)c4C1)CCC5)C3)CCC2 (stereo not drawn) | > 100 µM (inactive) | > 100 µM (inactive) | > 100 µM (inactive) | > 100 µM (inactive) | > 100 µM (inactive) | > 100 µM (inactive) | > 100 µM (inactive) | – | > 100 µM (inactive) | > 100 µM (inactive) | > 100 µM (inactive) | – | – | > 100 µM (inactive) | > 100 µM (inactive) | > 100 µM (inactive) | > 100 µM (inactive) | > 100 µM (inactive) | > 100 µM (inactive) | > 100 µM (inactive)
15 | COc1c(O)cc(O)c2c(=O)cc(-c3ccccc3)oc12 [WOGONIN] | 87.9 µM (inactive) | 51.9 µM (inactive) | 22.4 µM (inactive) | 77.8 µM (inactive) | 42.9 µM (inactive) | > 100 µM (inactive) | 37.9 µM (inactive) | 64.3 µM (inactive) | 17.5 µM (inactive) | 23.6 µM (inactive) | 48.6 µM (inactive) | 34 µM (inactive) | 56.1 µM (inactive) | 51.1 µM (inactive) | 60.8 µM (inactive) | 24.3 µM (inactive) | 58.7 µM (inactive) | 2.58 µM (inactive) | 26.2 µM (inactive) | –
